Reference: patent US12331019B2, “Modified amino acid derivatives for the treatment of neurological diseases and selected psychiatric disorders” (Uniwersytet Jagiellonski, priority 2019, dated 2025)

Key:
[1] = tested on: Swiss albino mice (CD-1); details: i.p., CD-1 mice, 30 min; racemates, disclosed in publications; cited from earlier work
[2] = tested on: patients; details: monotherapy; cited from earlier work
[3] = tested on: Swiss albino mice (CD-1); test: 6 Hz (44 mA) psychomotor seizure test; format: in vivo; details: Mus musculus, ip, 0.5 h; i.p., CD-1 mice, tested 30 min after administration
[4] = rotarod test (motor coordination); details: male, Swiss albino (CD-1), mouse, in vivo, ip
Protocol: (§1) The study was conducted on male Swiss albino mice (CD-1) weighing 18-26 g. All procedures were carried out in accordance with applicable Polish and international guidelines on the ethics of animal testing, after obtaining appropriate institutional approval. […] These studies were carried out on individuals of male C57 black mice (Charles River) and individuals of male Sprague-Dawley rats. All tests were carried out based on the procedures described in the specialist literature.
(§2) These studies were also carried out in rats according to the methodology described by ETSP. The toxic dose (TD50) in the rotarod test was estimated based on the results obtained in 3-4 groups of animals consisting of at least 6 individuals.
(§3) To perform a statistical evaluation of the results, one-way analysis of variance (ANOVA) followed by Dunnett's post hoc test (multiple comparison test) were used. The values were considered statistically significant if p<0.05.

[5] = tested on: mice; test: spontaneous locomotor activity test; format: in vivo, mouse
Protocol: The assessment of the influence of the tested compounds on the spontaneous locomotor activity of animals (assessment of the sedative or activating effect) was carried out in accordance with the methodology described in the scientific literature (Mogilski et al. Inflamm. Res. 2017, 66, 79-95). The study group consisted of 10 animals.

[6] = tested on: neurons derived from human neuroblastoma SH-SY5Y cells; test: neurotrophic activity on human neurons, MTT test; details: 48 hours; for viability of human neurons under standard conditions: 0.1 to 100 μg/ml; for concentrations from which the compound acted trophically (eliminating the effect of lack of B27 supplement): trophic stress (B27 removed)
[7] = tested on: black C57 mice (Charles River); test: 6 Hz (44 mA) test, ETSP; format: in vivo; details: Mus musculus, ip, 1 h, i.p., tested 60 min after administration
Protocol: as §1
(§4) Screening was performed on groups of 4-8 mice or 4-8 rats. The median effective dose (ED50) in a given test was estimated based on the results obtained in 3-4 groups of animals consisting of at least 6 individuals.
as §3

[8] = tested on: black C57 mice (Charles River); test: corneal kindled seizure model, ETSP; format: in vivo; details: Mus musculus, ip, 1 h, i.p., tested 60 min after administration
Protocol: as §1, §4, §3

[9] = in vivo; details: male, C57 black, mouse, ip
Protocol: as §1, §2, §3

[10] = tested on: Sprague-Dawley rats; test: MES test in rats, ETSP; format: in vivo; details: Rattus norvegicus, ip, 0.5 h, i.p., tested 30 min after administration, 95% confidence limits in brackets
Protocol: as §1, §4, §3

[11] = tested on: Sprague-Dawley rats; test: lamotrigine resistant amygdala kindled seizure model; format: in vivo, rat; details: 70 mg/kg i.p., 30 min, 5 rats tested
Protocol: as §1, §4

[12] = tested on: mice; test: formalin test; format: in vivo, mouse; details: vs vehicle control
Protocol: as §1, with “literature. […] The study group consisted of 8-10 animals. […] To perform a statistical evaluation of the results, one-way analysis of variance (ANOVA) followed by Dunnett's post hoc test (multiple comparison test) were used. The values were considered statistically significant if p<0.05.” for “literature.”

[13] = tested on: mice; test: oxaliplatin-induced neuropathic pain model, von Frey test; format: in vivo, mouse
Protocol: as §1, with “literature. […] The study group consisted of 8-10 animals. […] To perform a statistical evaluation of the results, one-way analysis of variance (ANOVA) followed by Dunnett's post hoc test (multiple comparison test) were used. The values were considered statistically significant if p<0.05.” for “literature.”

[14] = tested on: mice; test: streptozotocin-induced model of painful diabetic neuropathy, von Frey test; format: in vivo, mouse; details: 3 weeks after streptozotocin
Protocol: as §1, with “literature. […] The study group consisted of 8-10 animals. […] To perform a statistical evaluation of the results, one-way analysis of variance (ANOVA) followed by Dunnett's post hoc test (multiple comparison test) were used. The values were considered statistically significant if p<0.05.” for “literature.”

[15] = tested on: mice; test: forced swim test (Porsolt test); format: in vivo, mouse; details: 30, 45 and 60 mg/kg i.p.; vs vehicle control
Protocol: as §1, with “literature. […] The study group consisted of 8-10 animals. […] To perform a statistical evaluation of the results, one-way analysis of variance (ANOVA) followed by Dunnett's post hoc test (multiple comparison test) were used. The values were considered statistically significant if p<0.05.” for “literature.”

[16] = tested on: mice; test: four plates test (Aron test); format: in vivo, mouse; details: vs vehicle control
Protocol: as §1, with “literature. […] The study group consisted of 8-10 animals. […] To perform a statistical evaluation of the results, one-way analysis of variance (ANOVA) followed by Dunnett's post hoc test (multiple comparison test) were used. The values were considered statistically significant if p<0.05.” for “literature.”

[17] = target: T1, CYP3A4 (Homo sapiens, UniProt P08684); test: CYP3A4 P450-Glo luminescence test; format: in vitro ADME; details: 10 μM
T1 construct: purchased Promega (Madison, WI, USA)
Protocol: (§5) The studies were conducted using commercial luminescence tests CYP3A4 P450-Glo™, CYP2D6 P450-Glo™ and CYP2C9 P450-Glo™ from Promega (Madison, WI, USA).
(§6) The studies were conducted using commercial luminescence tests CYP3A4 P450-Glo™, CYP2D6 P450-Glo™ and CYP2C9 P450-Glo™ from Promega (Madison, WI, USA). The CYP isoforms selected for study are responsible for the metabolism of approximately 60-70% of the drugs available and their stimulation or inhibition determines the majority of metabolic drug interactions.

[18] = target: T2, CYP2D6 (Homo sapiens, UniProt P10635); test: CYP2D6 P450-Glo luminescence test; format: in vitro ADME; details: 10 μM
T2 construct: purchased Promega (Madison, WI, USA)
Protocol: as §5, §6

[19] = target: CYP2C9 (Homo sapiens, UniProt P11712); details: 10 μM
Protocol: as §5, §6

[20] = tested on: human liver microsomes; test: metabolic stability in human liver microsomes; format: in vitro ADME; details: 120 minutes incubation, NADPH cofactor
Protocol: The metabolic stability study was performed using human liver microsomes purchased from Sigma-Aldrich (St. Louis, MO, USA).

[21] = tested on: HaCaT cells; test: cytotoxic activity, MTT assay; format: cell-based; details: Homo sapiens, 72 hours incubation, mean ± SD
From the text: MTT assay. […] The IC50 value was estimated using CompuSyn version 1.0.

[22] = tested on: HepG2 cell line; test: hepatotoxicity, MTS test; details: 72 hours incubation, concentration range 1-100 μM
[23] = tested on: HEK-293 cell line; test: cytotoxic activity, MTS test; details: 72 hours incubation, concentration range 1-100 μM
[24] = tested on: mice; test: neuroprotection in pilocarpine-induced status epilepticus (Fluoro-Jade B); details: PILO 300 mg/kg i.p.; dose of compound determined in the 6 Hz (32 mA) test; five mice shown (B-F)
[25] = tested on: Swiss albino mice (CD-1); details: i.p., CD-1 mice, 30 min; racemates, disclosed in publications; cited from earlier work; remark: listed apart in the source

Compound: CC(C(=O)NCc1ccccc1)N1C(=O)CCC1=O (racemic) [(RS)-1, (2RS)—N-benzyl-2-(2,5-dioxopyrrolidin-1-yl)propenamide]
- ED50 6 Hz (44 mA) [1]: 75.41 mg/kg

Compound: O=C1NC(=O)C(c2ccccc2)(c2ccccc2)N1 [phenytoin]
- sedative effect, share of patients [2]: approx. 32 % of patients

Compound: Nc1nnc(-c2cccc(Cl)c2Cl)c(N)n1 [lamotrigine]
- sedative effect, share of patients [2]: approx. 10 % of patients

Compound: C[C@H](C(=O)NCc1ccccc1F)N1C(=O)CCC1=O [Compound 2, (2R)-2-(2,5-dioxopyrrolidin-1-yl)-N-(2-fluorobenzyl)propanamide]
- ED50 [3]: 37.2 mg/kg
- TD50 at 30 min [4]: 299 mg/kg
- spontaneous locomotor activity ([5]; 90 mg/kg i.p.): statistically significant increase in spontaneous locomotor activity
- viability of human neurons under standard conditions [6]: did not affect the viability
- concentrations from which the compound acted trophically (eliminating the effect of lack of B27 supplement) [6]: ≥ 0.1 µg/mL

Compound: CCC1(c2ccccc2)C(=O)NC(=O)NC1=O [phenobarbital]
- sedative effect, share of patients [2]: approx. 39 % of patients

Compound: C[C@H](C(=O)NCc1ccccc1)N1C(=O)CCC1=O [Compound 1, (2R)—N-benzyl-2-(2,5-dioxopyrrolidin-1-yl)propanamide]
- ED50 [7]: 69.9 mg/kg
- ED50 [8]: 38.1 mg/kg
- TD50 at 60 min [9]: > 150 mg/kg
- ED50 [10]: 34.9 mg/kg
- Number of protected rats [11]: Number of protected rats: 3
- protection [11]: (protection—60%)
- nociceptive response time, second phase (tonic inflammatory pain) ([12]; i.p., 30, 60 and 90 mg/kg): statistically significantly shortened the time of nociceptive response
- nociceptive response time, first phase (acute pain) ([12]; i.p., all doses, statistically significant at 60 and 90 mg/kg): reduced the nociceptive response time
- pain threshold (mechanical stimulus) ([13]; 30 mg/kg i.p.): increased the pain threshold only in the early phase
- pain threshold (mechanical stimulus) ([13]; 60 mg/kg and 90 mg/kg i.p., early (3 h) and late (7 days) phase, vs measurement before compound): led to an increase in pain threshold at a dose-dependent manner
- pain threshold (mechanical stimulus) ([14]; 90 mg/kg i.p.): increased the pain threshold to the values observed before the induction of streptozotocin diabetes
- pain threshold (mechanical stimulus) ([14]; 30, 60 and 90 mg/kg i.p., vs measurement before compound): led to an increase in the pain threshold in a statistically significant and dose-dependent manner
- immobility time [15]: statistically significantly shortened the immobility time
- number of electrically punished plate crossings ([16]; 30 mg/kg i.p.): did not result in a statistically significant difference
- number of electrically punished plate crossings ([16]; 60 mg/kg and 90 mg/kg i.p.): statistically significantly increased the number of electrically punished plate crossings
- number of light beams interruptions during 30 minutes (spontaneous locomotor activity) ([5]; 30, 60 and 90 mg/kg i.p.): statistically significantly increased the number of light beams interruptions
- effect on CYP3A4 activity [17]: no effect
- effect on CYP2D6 activity [18]: no effect
- effect on CYP2C9 activity [19]: small, statistically significant (p<0.05) inhibition
- metabolites on UPLC chromatogram of reaction mixture [20]: no metabolites appeared
- IC50 [21]: 239.8 ± 0.6 µM
- effect on cell viability [22]: did not show a statistically significant effect
- effect on cell viability [23]: did not show a statistically significant effect
- viability of human neurons under standard conditions [6]: did not affect the viability
- concentrations from which the compound acted trophically (eliminating the effect of lack of B27 supplement) [6]: ≥ 1 µg/mL
- neuroprotective effect after PILO-induced SE (neurodegenerative changes) [24]: a protective effect was obtained for four mice

Compound: NCC1(CC(=O)O)CCCCC1 [gabapentin]
- sedative effect, share of patients [2]: approx. 9 % of patients

Compound: CC(C(=O)NCc1ccccc1F)N1C(=O)CCC1=O (racemic) [(RS)-2, (2RS)-2-(2,5-dioxopyrrolidin-1-yl)-N-(2-fluorobenzyl)propanamide]
- TD50 Rotarod test [25]: 300.9 mg/kg

Compound: CC[C@@H](C(N)=O)N1CCCC1=O [levetiracetam]
- sedative effect, share of patients [2]: approx. 20 % of patients

Compound: COc1cccc2c1C(=O)c1c(O)c3c(c(O)c1C2=O)C[C@@](O)(C(=O)CO)C[C@@H]3O[C@H]1C[C@H](N)[C@H](O)[C@H](C)O1 [Doxorubicin, reference compound]
- IC50 [21]: 0.23 ± 0.03 µM
